Laboratory results published in patent publication US8541588B2, “Sulfonamide derivatives” (Pfizer Limited, priority 2009, dated 2013).
pIC50: −log10 of the molar value.

Biological target: T1, Nav1.7 (or SCN9A) channel; HEK cells stably transfected with hSCN9A (Homo sapiens, UniProt Q15858)
T1 construct: expressed in transfected cells
Experiment: Nav1.7 block, PatchXpress 7000 automated whole-cell voltage clamp, estimated IC50 (EIC50)
Format: cell-based
Conditions: PatchXpress platform; hSCN9A HEK cells held at V1/2 of inactivation; estimated IC50

T1 sequence (Q15858 whole entry): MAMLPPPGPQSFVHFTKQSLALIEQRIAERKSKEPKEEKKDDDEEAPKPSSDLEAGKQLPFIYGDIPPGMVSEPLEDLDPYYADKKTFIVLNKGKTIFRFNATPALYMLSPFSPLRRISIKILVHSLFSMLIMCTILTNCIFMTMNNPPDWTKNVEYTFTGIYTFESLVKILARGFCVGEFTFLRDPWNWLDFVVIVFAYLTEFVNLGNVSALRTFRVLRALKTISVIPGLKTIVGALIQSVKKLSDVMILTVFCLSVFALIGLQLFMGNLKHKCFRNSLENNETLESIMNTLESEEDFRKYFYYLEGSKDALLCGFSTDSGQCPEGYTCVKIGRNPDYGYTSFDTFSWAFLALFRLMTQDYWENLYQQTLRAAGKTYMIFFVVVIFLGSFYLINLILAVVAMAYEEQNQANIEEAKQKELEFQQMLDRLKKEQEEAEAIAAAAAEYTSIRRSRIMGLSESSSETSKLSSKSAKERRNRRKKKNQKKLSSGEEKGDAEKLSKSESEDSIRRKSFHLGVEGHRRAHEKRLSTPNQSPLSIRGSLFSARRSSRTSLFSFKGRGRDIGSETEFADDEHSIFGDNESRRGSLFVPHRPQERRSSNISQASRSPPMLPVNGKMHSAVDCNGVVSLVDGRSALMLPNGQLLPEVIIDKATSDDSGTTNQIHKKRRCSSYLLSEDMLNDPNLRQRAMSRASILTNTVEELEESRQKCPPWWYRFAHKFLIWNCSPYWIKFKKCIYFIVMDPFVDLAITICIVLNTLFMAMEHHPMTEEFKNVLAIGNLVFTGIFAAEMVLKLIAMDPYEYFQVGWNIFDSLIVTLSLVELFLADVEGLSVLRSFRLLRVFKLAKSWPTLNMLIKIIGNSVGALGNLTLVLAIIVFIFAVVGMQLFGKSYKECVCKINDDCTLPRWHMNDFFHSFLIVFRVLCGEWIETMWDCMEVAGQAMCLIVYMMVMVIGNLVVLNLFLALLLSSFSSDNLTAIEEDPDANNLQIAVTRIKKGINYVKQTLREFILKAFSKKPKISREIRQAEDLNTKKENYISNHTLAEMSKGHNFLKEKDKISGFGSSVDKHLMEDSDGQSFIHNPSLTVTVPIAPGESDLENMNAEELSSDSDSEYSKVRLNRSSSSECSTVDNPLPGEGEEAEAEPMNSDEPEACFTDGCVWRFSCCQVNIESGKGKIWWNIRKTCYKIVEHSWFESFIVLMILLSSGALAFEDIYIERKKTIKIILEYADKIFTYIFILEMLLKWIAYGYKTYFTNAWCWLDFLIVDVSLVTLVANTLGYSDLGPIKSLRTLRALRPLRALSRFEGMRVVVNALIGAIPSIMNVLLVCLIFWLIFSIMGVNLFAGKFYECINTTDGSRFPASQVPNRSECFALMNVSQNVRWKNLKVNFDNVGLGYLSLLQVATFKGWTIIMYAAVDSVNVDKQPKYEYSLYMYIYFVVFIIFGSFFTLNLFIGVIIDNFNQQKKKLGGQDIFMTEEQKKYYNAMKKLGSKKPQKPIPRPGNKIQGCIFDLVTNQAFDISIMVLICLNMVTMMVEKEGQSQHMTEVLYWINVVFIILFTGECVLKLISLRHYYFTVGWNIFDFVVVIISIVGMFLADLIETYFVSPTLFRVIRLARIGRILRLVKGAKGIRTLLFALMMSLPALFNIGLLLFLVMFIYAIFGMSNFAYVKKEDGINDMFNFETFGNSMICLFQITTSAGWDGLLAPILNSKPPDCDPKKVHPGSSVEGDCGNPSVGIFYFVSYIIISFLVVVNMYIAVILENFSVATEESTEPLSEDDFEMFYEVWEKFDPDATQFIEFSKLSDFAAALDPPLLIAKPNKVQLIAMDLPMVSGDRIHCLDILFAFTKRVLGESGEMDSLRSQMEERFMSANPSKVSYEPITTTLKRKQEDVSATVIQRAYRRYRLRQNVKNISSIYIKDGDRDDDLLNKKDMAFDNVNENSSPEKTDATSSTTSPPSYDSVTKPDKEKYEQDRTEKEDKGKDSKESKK

Row | Compound | pIC50 | IC50 [nM]
1 | N#Cc1cc(S(=O)(=O)Nc2ncc(Cl)s2)ccc1Oc1cc(C(F)(F)F)nn1Cc1ccccc1 [Example 142, 4-{[1-benzyl-3-(trifluoromethyl)-1H-pyrazol-5-yl]oxy}-N-(5-chloro-1,3-thiazol-2-yl)-3-cyanobenzenesulfonamide] | 5.58 | 
2 | Cn1cc(-c2ccc(Cl)cc2)c(Oc2ccc(S(=O)(=O)Nc3ncc(Cl)s3)cc2C#N)n1 [Example 137, 4-{[4-(4-chlorophenyl)-1-methyl-1H-pyrazol-3-yl]oxy}-N-(5-chloro-1,3-thiazol-2-yl)-3-cyanobenzenesulfonamide] | 5.59 | 
3 | O=C(O)Cn1nccc1-c1cc(F)ccc1Oc1ccc(S(=O)(=O)Nc2nccs2)cc1F [Example 238, 2-(5-(5-fluoro-2-(2-fluoro-4-(N-thiazol-2-ylsulfamoyl)phenoxy)phenyl)-1H-pyrazol-1-yl)acetic acid] | 5.66 | 
4 | CCc1nsc(NS(=O)(=O)c2ccc(Oc3ccccc3-c3ccccc3)c(C#N)c2)n1 [Example 102, 4-(biphenyl-2-yloxy)-3-cyano-N-(3-ethyl-1,2,4-thiadiazol-5-yl)benzenesulfonamide] |  | >10000
5 | COc1ccc(-c2cccc(C)c2Oc2ccc(S(=O)(=O)Nc3ncns3)cc2C#N)cc1F [Example 41, 3-cyano-4-[(3′-fluoro-4′-methoxy-3-methylbiphenyl-2-yl)oxy]-N-1,2,4-thiadiazol-5-ylbenzenesulfonamide] | 4.96 | 
6 | Cc1n[nH]cc1-c1ccccc1Oc1ccc(S(=O)(=O)Nc2nccs2)cc1C#N [Example 200, 3-cyano-4-(2-(3-methyl-1H-pyrazol-4-yl)phenoxy)-N-(thiazol-2-yl)benzenesulfonamide] | 7.00 | 
7 | Cn1ccc(-c2ccc(Oc3ccc(S(=O)(=O)Nc4nccs4)cc3C#N)c(Cl)c2)n1 [Example 178, 4-(2-chloro-4-(1-methyl-1H-pyrazol-3-yl)phenoxy)-3-cyano-N-(thiazol-2-yl)benzenesulfonamide] | 5.51 | 
8 | 3-fluoro-4-(4-methyl-2-(1-methyl-1H-pyrazol-3-yl)phenoxy)-N-(thiazol-2-yl)benzenesulfonamide [Example 215] | 5.19 | 
9 | Cc1ccc(Oc2ccc(S(=O)(=O)Nc3nccs3)cc2F)c(-c2c(C)cnn2C(C)(C)C)c1 [Example 223, 4-(2-(1-tert-butyl-4-methyl-1H-pyrazol-5-yl)-4-methylphenoxy)-3-fluoro-N-(thiazol-2-yl)benzenesulfonamide] | 5.82 | 
10 | COc1cc(S(=O)(=O)Nc2ncns2)ccc1Oc1ccn(Cc2ccc(Cl)cc2)n1 [Example 259, 4-{[1-(4-chlorobenzyl)-1H-pyrazol-3-yl]oxy}-3-methoxy-N-1,2,4-thiadiazol-5-ylbenzenesulfonamide] | 4.78 | 
11 | Cc1noc(C)c1Cc1ccc(Oc2ccc(S(=O)(=O)Nc3nccs3)cc2F)cc1 [Example 122, 4-{4-[(3,5-dimethylisoxazol-4-yl)methyl]phenoxy}-3-fluoro-N-1,3-thiazol-2-ylbenzenesulfonamide] | 5.34 | 

Other lines, results leading:

Row | pIC50 | IC50 [nM] | Compound
12 |  | >10000 | O=S(=O)(Nc1cscn1)c1ccc(Oc2cc(C(F)(F)F)nn2-c2ccccc2)c(F)c1 [Example 274, 3-fluoro-4-(2-phenyl-5-trifluoromethyl-2H-pyrazol-3-yloxy)-N-thiazol-4-yl-benzenesulfonamide]
13 | 6.04 |  | Cn1ccc(-c2cc(Cl)ccc2Oc2ccc(S(=O)(=O)Nc3nccs3)cc2F)n1 [Example 216, 4-(4-chloro-2-(1-methyl-1H-pyrazol-3-yl)phenoxy)-3-fluoro-N-(thiazol-2-yl)benzenesulfonamide]
14 | 6.64 |  | O=S(=O)(Nc1nccs1)c1ccc(Oc2ccc(F)cc2-c2ccn[nH]2)c(F)c1 [Example 218, 3-fluoro-4-(4-fluoro-2-(1H-pyrazol-5-yl)phenoxy)-N-(thiazol-2-yl)benzenesulfonamide]

Same assay, conditions: estimated IC50; hSCN9A HEK cells, PatchXpress platform; Examples 283-814

Row | Compound | pIC50 | IC50 [nM]
15 | N#Cc1cc(S(=O)(=O)Nc2nccs2)ccc1Oc1ccc(-n2ccc(C(F)(F)F)n2)nc1 [Example 643, 3-cyano-N-1,3-thiazol-2-yl-4-({6-[3-(trifluoromethyl)-1H-pyrazol-1-yl]pyridin-3-yl}oxy)benzenesulfonamide] | 5.68 | 
16 | Cn1nccc1-c1cc(OC(F)(F)F)ccc1Oc1ccc(S(=O)(=O)Nc2nccs2)cc1F [Example 365, 3-fluoro-4-[2-(1-methyl-1H-pyrazol-5-yl)-4-(trifluoromethoxy)phenoxy]-N-1,3-thiazol-2-ylbenzenesulfonamide] | 7.16 | 
17 | Cn1nccc1-c1cc(CCO)ccc1Oc1ccc(S(=O)(=O)Nc2ncc(F)s2)cc1C#N [Example 716, 3-cyano-N-(5-fluoro-1,3-thiazol-2-yl)-4-[4-(2-hydroxyethyl)-2-(1-methyl-1H-pyrazol-5-yl)phenoxy]benzenesulfonamide] | 6.37 | 
18 | N#Cc1cc(S(=O)(=O)Nc2ncns2)ccc1Oc1ccc(OC(F)(F)F)cc1-c1ccn[nH]1 [Example 793, 3-cyano-4-[2-(1H-pyrazol-5-yl)-4-(trifluoromethoxy)phenoxy]-N-1,2,4-thiadiazol-5-ylbenzenesulfonamide] | 8.51 | 
19 | Cn1ccc(-c2cc(Cl)ccc2Oc2ccc(S(=O)(=O)Nc3ncns3)cc2C#N)n1 [Example 286, 4-[4-chloro-2-(1-methyl-1H-pyrazol-3-yl)phenoxy]-3-cyano-N-1,2,4-thiadiazol-5-ylbenzenesulfonamide] | 6.28 | 
20 | Cc1cc(C(F)(F)F)nn1-c1cccc(Oc2ccc(S(=O)(=O)Nc3nccs3)cc2C#N)c1 [Example 650, 3-cyano-4-{3-[5-methyl-3-(trifluoromethyl)-1H-pyrazol-1-yl]phenoxy}-N-1,3-thiazol-2-ylbenzenesulfonamide] | 5.80 | 

Other lines, results leading:

Row | pIC50 | IC50 [nM] | Compound
21 | 5.55 |  | Cn1cc(-c2cc(OC(F)(F)F)ccc2Oc2cc(F)c(S(=O)(=O)Nc3cscn3)cc2F)cn1 [Example 607, 2,5-difluoro-4-[2-(1-methyl-1H-pyrazol-4-yl)-4-(trifluoromethoxy)phenoxy]-N-1,3-thiazol-4-ylbenzenesulfonamide]
22 | 8.12 |  | O=S(=O)(Nc1ncns1)c1ccc(Oc2ccc(Cl)cc2-c2ccn[nH]2)c(Cl)c1 [Example 475, 3-chloro-4-[4-chloro-2-(1H-pyrazol-5-yl)phenoxy]-N-1,2,4-thiadiazol-5-ylbenzenesulfonamide]
23 |  | >1000 | N#Cc1cc(S(=O)(=O)Nc2cscn2)ccc1Oc1ccc(Cl)cc1-n1cnc(C(F)(F)F)c1 [Example 397, 4-{4-chloro-2-[4-(trifluoromethyl)-1H-imidazol-1-yl]phenoxy}-3-cyano-N-1,3-thiazol-4-ylbenzenesulfonamide]
24 | 5.57 |  | CCn1nc(C(F)(F)F)cc1-c1ccc(Oc2ccc(S(=O)(=O)Nc3cscn3)cc2C#N)cc1 [Example 401, 3-cyano-4-{4-[1-ethyl-3-(trifluoromethyl)-1H-pyrazol-5-yl]phenoxy}-N-1,3-thiazol-4-ylbenzenesulfonamide]
25 | 7.30 |  | O=S(=O)(Nc1nncs1)c1ccc(Oc2ccc(Cl)cc2-c2ccn[nH]2)c(Cl)c1 [Example 747, 3-chloro-4-[4-chloro-2-(1H-pyrazol-5-yl)phenoxy]-N-1,3,4-adiazol-2-ylbenzenesulfonamide]
26 | 7.00 |  | O=S(=O)(Nc1cscn1)c1cc(F)c(Oc2ccc(Cl)cc2-c2cn[nH]c2)cc1F [Example 605, 4-[4-chloro-2-(1H-pyrazol-4-yl)phenoxy]-2,5-difluoro-N-1,3-thiazol-4-ylbenzenesulfonamide]
27 | 7.92 |  | N#Cc1cc(S(=O)(=O)Nc2ncns2)ccc1Oc1ccc(Cl)cc1-c1ccnc(Cl)c1 [Example 743, 4-[4-chloro-2-(2-chloropyridin-4-yl)phenoxy]-3-cyano-N-1,2,4-thiadiazol-5-ylbenzenesulfonamide]
28 | 8.28 |  | N#Cc1cc(S(=O)(=O)Nc2ncns2)ccc1Oc1cc(Cl)c(F)cc1-c1cn[nH]c1 [Example 754, 4-[5-chloro-4-fluoro-2-(1H-pyrazol-4-yl)phenoxy]-3-cyano-N-1,2,4-thiadiazol-5-ylbenzenesulfonamide]
29 | 6.57 |  | O=S(=O)(Nc1ccc(F)cn1)c1cc(F)c(Oc2ccc(C(F)(F)F)cc2C2CCNCC2)cc1F [Example 666, 2,5-Difluoro-N-(5-fluoropyridin-2-yl)-4-[2-piperidin-4-yl-4-(trifluoromethyl)phenoxy]benzenesulfonamide]
30 |  | >1000 | Nc1nccc(-c2cc(F)ccc2Oc2cc(F)c(S(=O)(=O)Nc3ncc(Cl)s3)cc2F)n1 [Example 622, 4-[2-(2-aminopyrimidin-4-yl)-4-fluorophenoxy]-N-(5-chloro-1,3-thiazol-2-yl)-2,5-difluorobenzenesulfonamide]

Same assay, conditions: estimated IC50; hSCN9A HEK cells, PatchXpress platform; Examples 815-1040

Row | pIC50 | IC50 [nM] | Compound
31 | 6.85 |  | CN(C)c1n[nH]cc1-c1cc(Cl)ccc1Oc1cc(F)c(S(=O)(=O)Nc2nncs2)cc1Cl [Example 870, 5-chloro-4-{4-chloro-2-[3-(dimethylamino)-1H-pyrazol-4-yl]phenoxy}-2-fluoro-N-1,3,4-thiadiazol-2-ylbenzenesulfonamide]
32 |  | >10000 | Cn1nccc1-c1cc(Cl)ccc1Oc1ccc(S(=O)(=O)Nc2cccnc2)cc1C#N [Example 923, 4-[4-chloro-2-(1-methyl-1H-pyrazol-5-yl)phenoxy]-3-cyano-N-pyridin-3-ylbenzenesulfonamide]
33 | 6.74 |  | Cc1cnncc1-c1cc(Cl)ccc1Oc1ccc(S(=O)(=O)Nc2ncns2)cc1C#N [Example 914, 4-[4-chloro-2-(5-methylpyridazin-4-yl)phenoxy]-3-cyano-N-1,2,4-thiadiazol-5-ylbenzenesulfonamide]
34 | 6.64 |  | N#Cc1cc(S(=O)(=O)Nc2nncs2)ccc1Oc1ccc(C(F)(F)F)cc1-c1ccnnc1 [Example 946, 3-cyano-4-[2-pyridazin-4-yl-4-(trifluoromethyl)phenoxy]-N-1,3,4-thiadiazol-2-ylbenzenesulfonamide]
35 | 6.52 |  | N#Cc1cc(S(=O)(=O)Nc2ncns2)ccc1Oc1ccc(F)cc1-c1cc(N)n[nH]1 [Example 826, 4-[2-(3-amino-1H-pyrazol-5-yl)-4-fluorophenoxy]-3-cyano-N-1,2,4-thiadiazol-5-ylbenzenesulfonamide]
